# pIC50: −log10 of the molar value.
# Legend:
# [1] = test system: MYC mRNA expression in SU-DHL-4 cells; assay: Suppressive effect on MYC mRNA expression (Test Example 2); format: cell-based, human; details: Homo sapiens, test compound 100 nmol/L, 6 hours, qRT-PCR corrected by ACTB, GAPDH, HPRT1, read-out: Suppression Rate of MYC mRNA Expression (%)
# Method: The cells were passaged twice a week at a volume of 20-40 mL so as to maintain a cell concentration of 1×10^6 cells/mL or less. The cultured SU-DHL-4 cells were seeded at 6×10^5 cells/well in a transparent 6-well plate (Code No. 140675, Thermo Fisher Scientific). After seeding, the cells were precultured at 37° C. in a carbon dioxide gas incubator for 18 to 25 hours. […] At this time, the final concentration of DMSO was adjusted to be 0.1 vol %. After adding the test compound, the cells were cultured at 37° C. in a carbon dioxide gas incubator for 6 hours. Then, the cells were collected by centrifugation and used for extraction of mRNA. mRNA extraction from cells was performed using Maxwell® 16 LEV simplyRNA Purification Kits (Code No. AS1270, Promega). The mRNA recovery protocol was performed according to the manufacturer's recommended protocol attached to the kit. […] The cDNA conversion was performed, according to the manufacturer's recommended protocol attached to the kit, in 0.020 mL of the reaction solution, and GeneAmp® PCR System 9700 (Applied Biosystems) was used. The cDNA-converted sample was diluted 10-fold by adding 0.180 mL of RNase Free Water (Code No. 10977-023, Thermo Fisher Scientific) and used for quantitative real-time polymerase chain reaction (qRT-PCR). For the calibration curve of qRT-PCR, 0.08 mL of RNase Free Water was added to a cDNA sample using DMSO as a test compound for 5-fold dilution. Further, two 5-fold dilutions were prepared stepwise, and these three samples were used as the calibration curve samples. The following reagents were used for qRT-PCR: TaqMan Gene Expression Assays, Inventoried (Primer probe: Code No. 4331182, Thermo Fisher Scientific, Assay ID: (i) MYC: Hs00153408_m1, (ii) ACTB: Hs01060665_g1, (iii) GAPDH: Hs04420697_g1, (iv) HPRT1: […] Universal PCR Master Mix, no AmpEraseR UNG (Master Mix: Code No. 4367846, Thermo Fisher Scientific). Primer probe (0.001 mL), Master Mix (0.010 mL), water (0.004 mL) and the diluted cDNA sample (0.005 mL) were mixed, and qRT-PCR analysis was performed. For qRT-PCR analysis, QuantStudio 7 Flex (Thermo Fisher Scientific) or 7500 Fast Real-Time PCR (Applied Biosystems) was used to measure in Fast mode and analyze. […] Corrected MYC expression=A/B • A: MYC expression level • B: Geometric mean of expression levels of ACTB, GAPDH and HPRT1 Using the corrected values, the suppression rate of MYC expression for the wells to which the test compound was not added was calculated by the following formula. […] Corrected MYC expression level in a well containing test compound • D: Corrected MYC expression level in a well to which test compound was not added
# DCAF16 KO SU-DHL-4 cells = assay: Inhibitory effect on cell viability using SU-DHL-4 DCAF16 knock out (KO) cell line (Test Example 6); format: cell-based, human
# Method: The human DLBCL cell line SU-DHL-4 was purchased from DSMZ. SU-DHL-4 was passaged using RPMI1640 medium containing 10 vol % FBS. After the Cas9 gene was introduced, the cells were cultured in the above medium containing 0.01 mg/mL blasticidin (InvivoGen, Cat No. ant-bl-1). After introduction of sgRNA, the cells were cultured in the above medium containing 0.0001 mg/mL puromycin dihydrochloride (SIGMA, Cat No. P9020-10 ML). The culture conditions were 37° C. and 5% CO2.
# Edit-R Lentiviral hEF1α-Blast-Cas9 Nuclease Particles (Cat No. VCAS10126) was used as a lentivirus for expressing Cas9 in human cell lines. Three types of Edit-R Human DCAF16 Lentiviral sgRNA (Cat No. VSGH10142-246568260; DNA target sequence […] (SEQ ID NO: 1), Cat No. VSGH10142-246568262; DNA target sequence […] (SEQ ID NO: 2) and Cat No. VSGH10142-246568263; DNA target sequence […] (SEQ ID NO: 3)) were used as lentiviruses for introducing DCAF16 sgRNA. As a control, Edit-R Lentiviral sgRNA Non-targeting Control #1 (Cat No. VSGC10215) was used. All lentiviruses were purchased from Dharmacon and stored at −80° C. until use.
# SU-DHL-4 was suspended at 4×10^5 cells/mL in RPMI 1640 without FBS, 0.25 mL of the suspension was added to a 24-well plate, and the cells were cultured overnight. The next day, 0.003 mL of virus particles of Edit-R Lentiviral hEF1α-Blast-Cas9 Nuclease Particles was added. After culturing in a CO2 incubator for 4 hours, RPMI 1640 containing 0.75 mL of 10 vol % FBS was added. After culturing in a CO2 incubator for about 48 hours, the medium was replaced with RPMI1640 containing 10 vol % FBS, and the cells were cultured in a CO2 incubator. Four days after infection, the medium was replaced with a medium containing 0.01 mg/mL blasticidin (InvivoGen, Cat No. ant-bl-1). Then, the cells were passaged once every 2 to 3 days and thus twice in total (that is, cultured for 1 week) to obtain SU-DHL-4/Cas9, which is a Cas9-introduced SU-DHL-4 cell line.
# (6) sgRNA infection SU-DHL-4/Cas9 was suspended at 4×10^5 cells/mL in RPMI 1640 without FBS, 0.25 mL of the suspension was added to a 24-well plate, and the cells were cultured overnight. The next day, a total of 4 types of sgRNA virus particles, 1 type of Control and 3 types targeting DCAF16 were added to the respective wells by 0.03 mL. After culturing in a CO2 incubator for 5 hours, RPMI 1640 containing 0.75 mL of 10 vol % FBS was added.
# After culturing in a CO2 incubator for about 48 hours, the medium was replaced with RPMI1640 containing 10 vol % FBS, and the cells were cultured in a CO2 incubator. Four days after infection, the medium was replaced with a medium supplemented with 0.01 mg/mL puromycin dihydrochloride (SIGMA, Cat No. P9020-10 ML). Then, the cells were passaged once or twice a week for 2 weeks, and a cell stock was prepared using CELLBANKER I plus (Takara Bio, Cat No. CB-021). Cell line stock was stored at −80° C. Using Edit-R Lentiviral sgRNA Non-targeting Control #1, the Negative Control sequence was introduced into the SU-DHL-4 cell line, which was referred to as SU-DHL-4 NC strain, and using Edit-R Human DCAF16 Lentiviral sgRNA, […] sequence (SEQ ID NO: 1) was introduced into the SU-DHL-4 cell line, which was referred to as SU-DHL-4 DCAF16 KO1 strain, […] sequence (SEQ ID NO: 2) was introduced into the SU-DHL-4 cell line, which was referred to as SU-DHL-4 DCAF16 KO2 strain, and […] sequence (SEQ ID NO: 3) was introduced into the SU-DHL-4 cell line, which was referred to as SU-DHL-4 DCAF16 KO 3 strain.
# The cultured DCAF16 KO SU-DHL-4 cells were seeded at 2000 cells/well in a transparent 384-well plate (Code No. 781182, Greiner bio-one). After seeding, the cells were pre-cultured at 37° C. in a carbon dioxide gas incubator for 18 to 25 hours. […]
# BRD2 = target: T1, BRD2 (Homo sapiens, UniProt P25440); assay: Evaluation of BET proteolysis in SU-DHL-4 cell line by Western blotting: BRD2 (Test Example 4); format: cell-based; details: SU-DHL-4 cells, test compound 100 nmol/L, 24 hours
# T1 construct: Changes in the amount of BRD4, BRD2 and BRD3 proteins in the SU-DHL-4 cell line; endogenous in cells; host or cells: SU-DHL-4
# T1 sequence (P25440 whole entry): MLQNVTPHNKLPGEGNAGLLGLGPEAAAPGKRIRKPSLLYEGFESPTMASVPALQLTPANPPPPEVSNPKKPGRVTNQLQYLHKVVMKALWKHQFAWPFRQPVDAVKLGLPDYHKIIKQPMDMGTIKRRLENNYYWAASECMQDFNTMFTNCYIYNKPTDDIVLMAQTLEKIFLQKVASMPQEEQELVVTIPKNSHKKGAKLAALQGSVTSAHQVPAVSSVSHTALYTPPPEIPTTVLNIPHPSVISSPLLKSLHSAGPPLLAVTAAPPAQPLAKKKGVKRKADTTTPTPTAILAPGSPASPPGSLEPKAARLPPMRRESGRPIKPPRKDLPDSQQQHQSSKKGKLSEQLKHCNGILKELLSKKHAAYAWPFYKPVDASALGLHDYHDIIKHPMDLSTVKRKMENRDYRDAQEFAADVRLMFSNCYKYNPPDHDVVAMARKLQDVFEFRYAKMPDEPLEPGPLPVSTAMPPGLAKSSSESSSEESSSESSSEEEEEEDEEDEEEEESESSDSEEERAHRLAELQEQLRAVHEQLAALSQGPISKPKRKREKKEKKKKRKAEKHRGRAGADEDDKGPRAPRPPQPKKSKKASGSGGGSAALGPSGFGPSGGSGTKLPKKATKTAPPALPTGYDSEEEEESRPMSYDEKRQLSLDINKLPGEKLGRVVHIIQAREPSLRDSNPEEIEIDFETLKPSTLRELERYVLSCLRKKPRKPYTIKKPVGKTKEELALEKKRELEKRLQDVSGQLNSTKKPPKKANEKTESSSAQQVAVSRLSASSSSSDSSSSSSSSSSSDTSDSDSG
# Method: (§1) The human DLBCL cell line SU-DHL-4 was purchased from DSMZ. SU-DHL-4 was passaged using RPMI1640 medium containing 10 vol % FBS. The culture conditions were 37° C. and 5% CO2.
# Anti-BRD2 antibody: Brd2 (D8964) Rabbit mAb (Cell Signaling Technology, Cat No. #5848S)
# (§2) Changes in the amount of BRD4, BRD2 and BRD3 proteins in the SU-DHL-4 cell line by the test compound (compound 1b, compound 1l or compound P3) were detected by WB. The compound P3 is a compound described as example 14 in the known Patent Document 2 (WO 2015/081284), which was synthesized according to the method described in Patent Document 2 and used in this test.
# (§3) The cultured SU-DHL-4 cells were seeded at 6×10^5 cells/well in a transparent 6-well plate (Code No. 140675, Thermo Fisher Scientific). After seeding, the cells were pre-cultured at 37° C. in a carbon dioxide gas incubator for 18 to 25 hours. Next, a 0.1 mmol/L DMSO solution of the test compound was prepared, diluted so that the concentration was 200-fold of the final concentration in RPMI1640 medium containing the above FBS and PS, and 1/200 volume of the diluted solution was added to each well. At this time, the final concentration of DMSO was adjusted to be 0.1 vol %. After adding the test compound, the cells were cultured at 37° C. in a carbon dioxide gas incubator for 24 hours.
# (§4) After collecting the cells, the supernatant was aspirated, and Lysis buffer 6 (R&D systems, Cat No. 895561) was added to the pellet at 0.1 mL/sample. After incubating on ice for 60 minutes, the supernatant was collected by centrifugation at 15000 rpm for 10 minutes at 4° C.
# (§5) Using Pierce BCA Protein Assay Kit (Thermo Fisher, Cat No. 23225), the protein concentration of each sample was quantified according to the manual attached to the kit, and then was diluted and prepared with Lane Marker Reducing Sample Buffer (5×) (Thermo Fisher, Cat No. 39000) and Lysis buffer 6 to 1 mg/mL. The cells were incubated at 95° C. for 5 minutes to prepare WB samples. WB samples were stored at −30° C. until electrophoresis.
# (§6) The WB sample was thawed and used after vortex mixing and spin down. […]
# BRD3 = target: T2, BRD3 (Homo sapiens, UniProt Q15059); assay: Evaluation of BET proteolysis in SU-DHL-4 cell line by Western blotting: BRD3 (Test Example 4); format: cell-based; details: SU-DHL-4 cells, test compound 100 nmol/L, 24 hours
# T2 construct: Changes in the amount of BRD4, BRD2 and BRD3 proteins in the SU-DHL-4 cell line; endogenous in cells; host or cells: SU-DHL-4
# T2 sequence (Q15059 whole entry): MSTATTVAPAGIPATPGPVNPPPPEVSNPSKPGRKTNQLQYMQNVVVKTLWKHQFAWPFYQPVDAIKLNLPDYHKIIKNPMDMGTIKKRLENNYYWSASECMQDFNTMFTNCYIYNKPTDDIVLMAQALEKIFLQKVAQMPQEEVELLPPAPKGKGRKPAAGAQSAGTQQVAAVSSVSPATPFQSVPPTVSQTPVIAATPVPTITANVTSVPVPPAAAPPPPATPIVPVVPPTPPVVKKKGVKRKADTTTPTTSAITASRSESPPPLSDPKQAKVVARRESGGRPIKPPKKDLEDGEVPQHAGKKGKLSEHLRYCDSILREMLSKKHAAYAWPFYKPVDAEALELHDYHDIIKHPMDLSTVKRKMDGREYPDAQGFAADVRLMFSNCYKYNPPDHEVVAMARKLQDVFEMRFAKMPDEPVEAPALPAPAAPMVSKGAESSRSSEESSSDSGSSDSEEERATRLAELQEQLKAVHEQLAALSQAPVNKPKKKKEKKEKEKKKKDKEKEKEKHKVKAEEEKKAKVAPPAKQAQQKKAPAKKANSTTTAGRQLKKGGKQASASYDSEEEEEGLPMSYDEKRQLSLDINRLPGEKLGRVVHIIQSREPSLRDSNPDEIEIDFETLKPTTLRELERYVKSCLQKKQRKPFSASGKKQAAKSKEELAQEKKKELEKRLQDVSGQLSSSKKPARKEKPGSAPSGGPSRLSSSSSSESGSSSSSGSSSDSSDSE
# Method: as §1
# Anti-BRD3 antibody: Anti-BRD3 antibody (2088C3a) (Santa Cruz Biotechnology, Cat No. sc-81202)
# as §2, §3, §4, §5, §6
# BRD4 = target: T3, BRD4 (Homo sapiens, UniProt O60885); assay: Evaluation of BET proteolysis in SU-DHL-4 cell line by Western blotting: BRD4 (Test Example 4); format: cell-based; details: SU-DHL-4 cells, test compound 100 nmol/L, 24 hours
# T3 construct: Changes in the amount of BRD4, BRD2 and BRD3 proteins in the SU-DHL-4 cell line; endogenous in cells; host or cells: SU-DHL-4
# Method: as §1
# Anti-BRD4 antibody: BRD4 (E2A7X) Rabbit mAb (Cell Signaling Technology, Cat No. #13440S)
# as §2, §3, §4, §5, §6
Compound,inhibition at 0.1 µM [1] [%],Activity Attenuation Ratio (DCAF16 KO SU-DHL-4 cells; (SU-DHL-4 DCAF16 KO IC50)/(SU-DHL-4 WT IC50)),"pIC50 (DCAF16 KO SU-DHL-4 cells; Homo sapiens, DCAF16 KO SU-DHL-4 cells, 72 hours, Cell Counting Kit-8, 50% inhibition of cell viability)","change in amount of BRD2 protein (band in Western blotting, FIG. 1) (BRD2)","change in amount of BRD3 protein (band in Western blotting, FIG. 1) (BRD3)","change in amount of BRD4 protein (band in Western blotting, FIG. 1) (BRD4)"
"CCC(=O)N1c2ccccc2[C@H](Nc2ccc(NC(=O)CCCC(=O)Nc3ccc(N[C@@H]4C[C@H](C)N(C(=O)CC)c5ccccc54)cc3)cc2)C[C@@H]1C (relative stereo) [Compound 4a, N^1,N^5-bis(4-{[(2S*,4R*)-2-Methyl-1-propionyl-1,2,3,4-tetrahydroquinolin-4-yl]amino}phenyl)glutaramide]",98.4,361,7.12,,,
"CCNC(=O)C[C@@H]1N=C(c2ccc(SCCCCSc3ccc(C4=N[C@@H](CC(=O)NCC)c5nnc(C)n5-c5ccc(OC)cc54)cc3)cc2)c2cc(OC)ccc2-n2c(C)nnc21 [Compound P3, 2,2′-((4S,4'S)-6,6′-((butane-1,4-diylbis(sulfanediyl))bis(4,1-phenylene))bis(8-methoxy-1-methyl-4H-benzo[f][1,2,4]triazolo[4,3-a][1,4]diazepine-6,4-diyl))bis(N-ethylacetamide), reference compound]",,,,the band was not faint compared with that of control,the band was not faint compared with that of control,the band was not faint compared with that of control

# From patent US20220378923A1, “BET DEGRADER” (KYOWA KIRIN CO., LTD., priority 2019, published 2022)
